Structures are written as SMILES.

For the test, the target named is T1, CDK2/CycE (Homo sapiens, UniProt P24941).
T1 construct: GST; purchased ProQinase GmbH (Freiburg, Germany); host or cells: insect cells (Sf9)
Description: CDK2/CycE kinase assay (TR-FRET). It counts as biochemical. Conditions: avg, read-out: CDK2 avg (IC50 [mol/l]). An outline of the steps:
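Read-out is a TR-FRET 665/620 nm emission ratio from EDTA-stopped reactions detected with anti-pRB(pSer807/pSer811), Eu-labelled anti-mouse IgG and streptavidin-XL665, scaled between no-enzyme and uninhibited wells. Reaction: Sf9-expressed GST-CDK2/GST-CycE, 15 min compound preincubation, 10 μM ATP, 0.75 μM biotin-peptide, 25 min, 22° C., pH 8.0 Tris buffer.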
(Time-resolved FRET reads energy transfer from a long-lived donor to a nearby acceptor.)
Consider `Cc1nsc(Nc2cnc(C(F)(F)F)cn2)c1C(=O)Nc1ccc(OCCNCCF)nc1` [Example 321, N-(6-{2-[(2-fluoroethyl)amino]ethoxy}pyridin-3-yl)-3-methyl-5-{[5-(trifluoromethyl)pyrazin-2-yl]amino}-1,2-thiazole-4-carboxamide], for which the IC50 is no less than 20 µM.
Regarding `Cc1nsc(Nc2cc(C#N)ccn2)c1C(=O)Nc1ccc(OC2CCN(C(=O)OC(C)(C)C)CC2)nc1` [Example 23, tert-Butyl 4-({5-[({5-[(4-cyanopyridin-2-yl)amino]-3-methyl-1,2-thiazol-4-yl}-carbonyl)amino]pyridin-2-yl}oxy)piperidine-1-carboxylate], the IC50 is no less than 20 µM.
In the case of `Cc1nsc(Nc2cncc(C(F)(F)F)n2)c1C(=O)Nc1ccc(F)c(OC2CCN(CC(F)F)CC2)c1` [Example 268, N-(3-{[1-(2,2-difluoroethyl)piperidin-4-yl]oxy}-4-fluorophenyl)-3-methyl-5-{[6-(trifluoromethyl)pyrazin-2-yl]amino}-1,2-thiazole-4-carboxamide], the IC50 was greater than 20 µM.
In the case of `Cc1nsc(Nc2cnc(C(F)(F)F)cn2)c1C(=O)Nc1ccc(OCCO)nc1` [Example 277, N-[6-(2-hydroxyethoxy)pyridin-3-yl]-3-methyl-5-{[5-(trifluoromethyl)pyrazin-2-yl]amino}-1,2-thiazole-4-carboxamide], the IC50 was greater than 20 µM.
The value for `Cc1nsc(Nc2cc(C#N)ccn2)c1C(=O)Nc1ccc(OC2CCN(CC(F)(F)F)CC2)nc1` [Example 25, 5-[(4-Cyanopyridin-2-yl)amino]-3-methyl-N-(6-{[1-(2,2,2-trifluoroethyl)piperidin-4-yl]oxy}pyridin-3-yl)-1,2-thiazole-4-carboxamide] was no less than 20 µM; that for `Cc1nsc(Nc2cc(C#N)ccn2)c1C(=O)Nc1ccc(OC2CCN(CC(F)F)CC2)nc1` [Example 263, 5-[(4-cyanopyridin-2-yl)amino]-N-(6-{[1-(2,2-difluoroethyl)piperidin-4-yl]oxy}pyridin-3-yl)-3-methyl-1,2-thiazole-4-carboxamide] was greater than 20 µM.
`Cc1nsc(Nc2cnc(C(F)(F)F)cn2)c1C(=O)Nc1ccc(F)c(OCC2CCN(CC(F)(F)F)CC2)c1` [Example 310, N-(4-fluoro-3-{[1-(2,2,2-trifluoroethyl)piperidin-4-yl]methoxy}phenyl)-3-methyl-5-{[5-(trifluoromethyl)pyrazin-2-yl]amino}-1,2-thiazole-4-carboxamide]: the IC50 was no less than 20 µM.
As to `Cc1nsc(Nc2cnc(C(F)(F)F)cn2)c1C(=O)Nc1ccc(F)c(OCC2CCN(CCC(F)(F)F)CC2)c1` [Example 311, N-(4-fluoro-3-{[1-(3,3,3-trifluoropropyl)piperidin-4-yl]methoxy}phenyl)-3-methyl-5-{[5-(trifluoromethyl)pyrazin-2-yl]amino}-1,2-thiazole-4-carboxamide], the IC50 is greater than 20 µM.
The same measure for `Cc1nsc(Nc2cnc(C(F)(F)F)cn2)c1C(=O)Nc1ccc(OC2CCN(CC(F)(F)F)C2)nc1` (stereo not drawn) [Example 297, 3-methyl-N-(6-{[1-(2,2,2-trifluoroethyl)pyrrolidin-3-yl]oxy}pyridin-3-yl)-5-{[5-(trifluoromethyl)pyrazin-2-yl]amino}-1,2-thiazole-4-carboxamide]: greater than 20 µM; for `Cc1nsc(Nc2cnc(C(F)(F)F)cn2)c1C(=O)Nc1ccc(F)c(OC2CCN(CC(F)F)C2)c1` (stereo not drawn) [Example 314, N-(3-{[1-(2,2-difluoroethyl)pyrrolidin-3-yl]oxy}-4-fluorophenyl)-3-methyl-5-{[5-(trifluoromethyl)pyrazin-2-yl]amino}-1,2-thiazole-4-carboxamide]: no less than 20 µM.
With `Cc1nsc(Nc2cncc(C(F)(F)F)n2)c1C(=O)Nc1ccc(F)c(OC2CCN(CCF)CC2)c1` [Example 269, N-(4-fluoro-3-{[1-(2-fluoroethyl)piperidin-4-yl]oxy}phenyl)-3-methyl-5-{[6-(trifluoromethyl)pyrazin-2-yl]amino}-1,2-thiazole-4-carboxamide], the IC50 is greater than 20 µM.
The value for `Cc1nsc(Nc2cnc(C(F)(F)F)cn2)c1C(=O)Nc1ccc(N(C)C)c(OCCCN(C)CC(F)(F)F)c1` [Example 299, N-[4-(dimethylamino)-3-{3-[methyl(2,2,2-trifluoroethyl)amino]propoxy}phenyl]-3-methyl-5-{[5-(trifluoromethyl)pyrazin-2-yl]amino}-1,2-thiazole-4-carboxamide] was greater than 20 µM; that for `Cc1nsc(Nc2cncc(C(F)(F)F)n2)c1C(=O)Nc1ccc(OC2CCN(CCC(F)(F)F)CC2)nc1` [Example 304, 3-methyl-5-{[6-(trifluoromethyl)pyrazin-2-yl]amino}-N-(6-{[1-(3,3,3-trifluoropropyl)piperidin-4-yl]oxy}pyridin-3-yl)-1,2-thiazole-4-carboxamide] was greater than 20 µM.
For `Cc1nsc(Nc2cnc(C(F)(F)F)cn2)c1C(=O)Nc1ccc(F)c(OC2CCN(CC(F)F)CC2)c1` [Example 265, N-(3-{[1-(2,2-difluoroethyl)piperidin-4-yl]oxy}-4-fluorophenyl)-3-methyl-5-{[5-(trifluoromethyl)pyrazin-2-yl]amino}-1,2-thiazole-4-carboxamide], the IC50 was greater than 20 µM.
The value for `Cc1nsc(Nc2cnc(C(F)(F)F)cn2)c1C(=O)Nc1ccc(OCCNCC(F)F)nc1` [Example 305, N-(6-{2-[(2,2-difluoroethyl)amino]ethoxy}pyridin-3-yl)-3-methyl-5-{[5-(trifluoromethyl)pyrazin-2-yl]amino}-1,2-thiazole-4-carboxamide] was no less than 20 µM; that for `Cc1nsc(Nc2cncc(C(F)(F)F)n2)c1C(=O)Nc1ccc(OCCO)nc1` [Example 276, N-[6-(2-hydroxyethoxy)pyridin-3-yl]-3-methyl-5-{[6-(trifluoromethyl)pyrazin-2-yl]amino}-1,2-thiazole-4-carboxamide] was greater than 20 µM; that for `CCN1CCN(C(=O)c2ccc(NC(=O)c3c(C)nsc3Nc3cnc(C(F)(F)F)cn3)cc2)CC1` [Example 261, N-{4-[(4-ethylpiperazin-1-yl)carbonyl]phenyl}-3-methyl-5-{[5-(trifluoromethyl)pyrazin-2-yl]amino}-1,2-thiazole-4-carboxamide] was greater than 20 µM.
As to `Cc1nsc(Nc2ccc(C#N)cn2)c1C(=O)Nc1cccc(C(=O)NC(C)C)c1` [Example 255, 5-[(5-cyanopyridin-2-yl)amino]-N-[3-(isopropylcarbamoyl)phenyl]-3-methyl-1,2-thiazole-4-carboxamide], the IC50 was greater than 20 µM.
Turning to `Cc1nsc(Nc2cnc(C(F)(F)F)cn2)c1C(=O)Nc1ccc(C(=O)NC2CCN(CC(F)F)CC2)cc1` [Example 259, N-(4-{[1-(2,2-difluoroethyl)piperidin-4-yl]carbamoyl}phenyl)-3-methyl-5-{[5-(trifluoromethyl)pyrazin-2-yl]amino}-1,2-thiazole-4-carboxamide], the IC50 was greater than 20 µM.
The same measure for `COC(=O)CCc1cccc(NC(=O)c2c(C)nsc2Nc2cnc3ccccc3n2)c1` [Example 257, methyl 3-[3-({[3-methyl-5-(quinoxalin-2-ylamino)-1,2-thiazol-4-yl]carbonyl}amino)phenyl]propanoate]: greater than 20 µM; for `Cc1nsc(Nc2cnc(C(F)(F)F)cn2)c1C(=O)Nc1ccc(C(=O)NC2CN(CC(F)F)C2)cc1` [Example 271, N-(4-{[1-(2,2-difluoroethyl)azetidin-3-yl]carbamoyl}phenyl)-3-methyl-5-{[5-(trifluoromethyl)pyrazin-2-yl]amino}-1,2-thiazole-4-carboxamide]: greater than 20 µM.
Regarding `Cc1nsc(Nc2cnc3ccccc3n2)c1C(=O)Nc1cccc(NS(=O)(=O)C2CN(CC(F)(F)F)C2)c1` [Example 285, 3-methyl-5-(quinoxalin-2-ylamino)-N-[3-({[1-(2,2,2-trifluoroethyl)azetidin-3-yl]sulfonyl}amino)phenyl]-1,2-thiazole-4-carboxamide], the IC50 is greater than 20 µM.
For the molecule `Cc1nsc(Nc2cnc(C(F)(F)F)cn2)c1C(=O)Nc1ccc(C(=O)N2CCN(CC(F)(F)F)CC2)cc1` [Example 260, 3-methyl-N-(4-{[4-(2,2,2-trifluoroethyl)piperazin-1-yl]carbonyl}phenyl)-5-{[5-(trifluoromethyl)pyrazin-2-yl]amino}-1,2-thiazole-4-carboxamide], the IC50 is greater than 20 µM.
The same measure for `Cc1nsc(Nc2cnc(C(F)(F)F)cn2)c1C(=O)Nc1ccc(C(=O)N2CCN(C)CC2)cc1` [Example 262, 3-methyl-N-{4-[(4-methylpiperazin-1 yl)carbonyl]phenyl}-5-{[5-(trifluoromethyl)pyrazin-2-yl]amino}-1,2-thiazole-4-carboxamide]: greater than 20 µM.
As for `Cc1nsc(Nc2cnc(C(F)(F)F)cn2)c1C(=O)Nc1ccc(F)c(OC2CCN(CC(F)(F)F)CC2)c1` [Example 264, N-(4-fluoro-3-{[1-(2,2,2-trifluoroethyl)piperidin-4-yl]oxy}phenyl)-3-methyl-5-{[5-(trifluoromethyl)pyrazin-2-yl]amino}-1,2-thiazole-4-carboxamide], the IC50 is greater than 20 µM.
The same measure for `Cc1nsc(Nc2ccc(C#N)cn2)c1C(=O)Nc1ccc(OC2CCN(C(=O)OC(C)(C)C)CC2)nc1` [Example 27, tert-Butyl 4-({5-[({5-[(5-cyanopyridin-2-yl)amino]-3-methyl-1,2-thiazol-4-yl}-carbonyl)amino]pyridin-2-yl}oxy)piperidine-1-carboxylate]: no less than 20 µM; for `Cc1nsc(Nc2cnc(C(F)(F)F)cn2)c1C(=O)Nc1ccc(F)c(OCC2CCN(C(CF)CF)CC2)c1` [Example 312, N-(3-{[1-(1,3-difluoropropan-2-yl)piperidin-4-yl]methoxy}-4-fluorophenyl)-3-methyl-5-{[5-(trifluoromethyl)pyrazin-2-yl]amino}-1,2-thiazole-4-carboxamide]: no less than 20 µM.

(Values after patent publication US20170334899A1, “AMINO-SUBSTITUTED ISOTHIAZOLES” (Bayer Pharma Aktiengesellschaft, priority 2014, published 2017).)
